In PMC5851651, “Population-specific design of de-immunized protein biotherapeutics” (PLoS Computational Biology, 2018):

What was measured:
[1] = test system: DRB1*15:01, DRB1*03:01 and DRB1*07:01; test: Experimental immunogenicity score: relative HLA binding combined across alleles, weighted by allele frequency; parameters: species or system human; key: allele-frequency-weighted sum of binding, % of control peptide signal; settings: for Difference to WT (Experimental Score): per peptide against wild-type counterpart; for Experimental Score: per peptide, weights DRB1*15:01 0.162, DRB1*07:01 0.146, DRB1*03:01 0.143
Experimental: (§1) To test the designs, we synthesized twenty overlapping 15-mer peptides containing the introduced mutations and their wild-type counterparts. The peptides maximally covered the predicted epitopes around the mutations of all designed constructs that contained one and two mutations (Supplementary S2 Table). The affinity of these peptides to the three HLA alleles was measured at time zero and after 24 hours (Methods, Supplementary S3 and S4 Tables). We linearly combined the measured relative affinity scores across HLA alleles weighted by their allele frequencies for each peptide respectively to produce a score that approximates the overall immunogenicity (Fig 5A). Results are presented for measurements taken at time point zero. […] Overall, the measured and predicted immunogenicity of the tested peptides correlated well with r = 0.76 (CI95 = [0.48, 0.91], t = 4.885, df = 17, p-value = 1.4e-4; Fig 5A). Next, we compared the predicted and measured gain or loss in immunogenicity for the whole region by reconstructing the targeted region using overlapping peptides. The measured relative scores were linearly combined (as previously) and then normalized to the number of overlapping peptides used in the reconstruction (Fig 5B). The difference in the measured scores between the wild type and mutant regions can be thought of as a proxy for gain or loss in immunogenicity and correlated well to the predicted changes (r = 0.86, CI95 = [0.40, 0.97], t = 4.136, df = 6, p-value = 6.1e-3; Fig 5B).
Fig 5 (A) Correlation of experimental and predicted immunogenicity of each peptide. The experimental immunogenicity score of a peptide is defined as the linear combination of the individual experimentally determined relative HLA binding affinity of each HLA allele h ∈ H weighted by the HLA allele frequency. (B) Correlation of experimental and predicted immunogenicity of the whole redesigned region. The summarized immunogenicity score of the whole region is the linear combination of the overlapping peptides used to reconstruct the region, normalized by total number of peptides used. The predicted immunogenicity scores per peptide were computed according to our immunogenicity objective function. The red lines are a fitted linear regression and the red tubes represent their 95-confidence interval.
(§2) In order to experimentally verify our in silico predictions for Factor VIII, we utilized the commercial REVEAL HLA-Peptide binding assay of ProImmune (www.proimmune.com). Peptides were synthesized using the PEPscreen custom library synthesis method, yielding high purity peptides for experimental analysis. HLA-peptide binding was assessed for the three HLA-DRB1 alleles used in this study (DRB1*15:01, DRB1*03:01 and DRB1*07:01). In short, the method compares the affinity of the studied peptide to the affinity of a high-affinity control peptide. Each peptide is then scored for binding to a certain HLA molecule relative to the score of the control peptide and reported as the percentage of the signal generated by the control peptide.

[2] = target: T1, DRB1*03:01 (Homo sapiens, UniProt P01903+P01911, A100K/A102G/A103R/A169T/F55Y/I96L/K41T/L162R/M171V/P40S/Q125H/Q178H/Q39Y/R42S/S66N/T106N/T262R/W38E/Y61H); test: REVEAL HLA-Peptide binding assay (ProImmune); settings: score relative to high-affinity control peptide, percentage of the control signal
T1 construct: purchased ProImmune
Experimental: as §1, §2

[3] = target: DRB1*07:01 (Homo sapiens, UniProt P01903+P01911, A100R/A102G/A103Q/D57E/D86V/E43K/F76Y/K127E/L162R/M171V/P40G/Q125H/Q99D/R33Q/R42Y/R54Q/S133A/S66F/T210M/V115G/Y107V/Y59L/Y89S); test: REVEAL HLA-Peptide binding assay (ProImmune); settings: score relative to high-affinity control peptide, percentage of the control signal
Experimental: as §1, §2

[4] = target: T2, DRB1*15:01 (Homo sapiens, UniProt P01903+P01911); test: REVEAL HLA-Peptide binding assay (ProImmune); settings: score relative to high-affinity control peptide, percentage of the control signal
T2 construct: purchased ProImmune
Experimental: as §1, §2

[5] = time 0 (H0), listed as LTRHLRIHPQSWEHQ
[6] = time 0 (H0), listed as LTRLLRIHPQSWEHQ
[7] = time 0 (H0), listed as LTRYLRIHPQSWVHQ
[8] = time 0 (H0), listed as TTRYLRIHPQSWEHQ

Row | Sequence | Difference to WT (Experimental Score) ([1]; after 24 hours (H24)) | Experimental Score ([1]; after 24 hours (H24)) | Difference to WT (Experimental Score) ([1]; time 0 (H0)) | Experimental Score ([1]; time 0 (H0)) | DRB1*03:01 ([2]; after 24 hours (H24)) [%] | DRB1*03:01 ([2]; time 0 (H0)) [%] | DRB1*07:01 ([3]; after 24 hours (H24)) [%] | DRB1*07:01 ([3]; time 0 (H0)) [%] | DRB1*15:01 ([4]; after 24 hours (H24)) [%] | DRB1*15:01 ([4]; time 0 (H0)) [%] | also measured
1 | LTRHLRIHPQSWEHQ [Design M-8, peptide covering Y2324H, V2333E] | -13.048 | 0.339 | -15.092 | 2.630 | 0.000 | 0.000 | 0.100 | 2.480 | 2.000 | 13.999 | DRB1*03:01 [2, 5]: 2.5%; DRB1*07:01 [3, 5]: 14.0%; DRB1*15:01 [4, 5]: 0.0%
2 | LTRLLRIHPQSWEHQ [Design M-7, peptide covering Y2324L, V2333E] | -10.436 | 2.951 | -11.941 | 5.781 | 0.000 | 0.026 | 20.100 | 33.528 | 0.100 | 5.445 | DRB1*03:01 [2, 6]: 0%; DRB1*07:01 [3, 6]: 33.5%; DRB1*15:01 [4, 6]: 5.4%
3 | LTRYLKIHPQSWEHQ [Design M-9, peptide covering R2326K, V2333E] | -10.725 | 2.662 | -12.376 | 5.346 | 0.000 | 1.668 | 17.900 | 28.951 | 0.300 | 5.434 | 
4 | LTRYLRIHPQSWVHQ [WT-3, wild-type peptide of Factor VIII C2 domain, reference compound] |  | 13.387 |  | 17.722 | 0.243 | 0.243 | 74.002 | 87.324 | 15.728 | 30.478 | DRB1*03:01 [2, 7]: 0.2%; DRB1*07:01 [3, 7]: 87.3%; DRB1*15:01 [4, 7]: 30.5%
5 | RIHPQSWVHHIALRM [Design M-4, peptide covering Q2335H] | 2.595 | 7.782 | 5.857 | 12.579 | 0.000 | 0.005 | 53.300 | 75.329 | 0.000 | 9.756 | 
6 | RIHPQSWVHQIALRM [WT-2, wild-type peptide of Factor VIII C2 domain, reference compound] |  | 5.187 |  | 6.723 | 0.000 | 0.226 | 35.522 | 40.243 | 0.00277 | 5.029 | 
7 | TTRYLRIHPQSWEHQ [Design M-11, peptide covering L2321T, V2333E] | -5.886 | 7.501 | -6.123 | 11.598 | 0.000 | 0.544 | 49.600 | 71.612 | 1.600 | 6.575 | DRB1*03:01 [2, 8]: 0.5%; DRB1*07:01 [3, 8]: 71.6%; DRB1*15:01 [4, 8]: 6.6%
